Measured values reported in patent publication US20090311795A1, “BILATERAL CONTROL OF FUNCTIONS TRADITIONALLY REGULATED BY ONLY SEROTONIN OR ONLY DOPAMINE” (priority 2002, published 2009).

Experiments:
Format in all cases: in vivo, human
[1] = system: urinary serotonin or dopamine; test: Phase (1, 2, 3) of urinary monoamine response to amino acid precursor dosing, from serial urinary assays; details: for amino acid dosing change required to move between phase 1 and phase 3, much larger changes / amino acid dosing change that moved subjects between phase 1 and phase 3, very small changes: 5-HTP with L-Tyrosine or L-Dopa; for amino acid dosing change required to move between phase 1 and phase 3, much larger changes: other subjects; for amino acid dosing change that moved subjects between phase 1 and phase 3, very small changes: some observed subjects
Excerpt: However, according to certain embodiments, the predictability of determining an individual or group response of urinary serotonin and/or dopamine monoamine levels between two assays is possible when it is properly determined that the subject is in one of three phases of urinary monoamine response to amino acid precursor administration. As identified above, there are at least three phases (referred to as phase 1, phase 2, and phase 3) of urinary monoamine response to amino acid precursor administration. In phase 1, the urinary monoamine level drops as the total amino acid precursor dosing of serotonin and dopamine is increased. In phase 1, the urinary monoamine level increases as the total amino acid precursor dosing of serotonin and dopamine is decreased. In phase 2, the urinary monoamine level remains below the therapeutic range and relatively constant as the total amount of monoamine amino acid precursor dosing is increased or decreased. In order for urinary monoamines to be in phase 2, subtherapeutic urinary monoamine levels must exist. In phase 3, the urinary monoamine level increases as the total amount of amino acid precursor dosing is increased. In phase 3, the urinary monoamine level decreases as the total amount of amino acid precursor dosing is decreased.
In certain embodiments, the phase of the urinary monoamines in response to amino acid therapy can properly be determined by obtaining two laboratory assays on two separate days with the subject taking a different amino acid dosing of serotonin and catecholamine precursors for each test. In general, at least 7 days must elapse between amino acid dosing changes and laboratory assay, but shorter time periods may be indicated at the decision of the individual obtaining the test. The laboratory assays should also be performed on samples that are collected at least 3 to 5 days after the last change in amino acid precursor dosing or start in amino acid precursor dosing of the serotonin and dopamine monoamines. If during the first assay the subject was taking supplemental amino acid precursors of serotonin and dopamine monoamines, then it is preferable that the second assay is performed after the dosing of the supplemental amino acid precursors has changed. The change in supplemental amino acid precursor may be for the serotonin monoamine and/or the dopamine monoamine. If both of the supplemental amino acid precursors of the serotonin and dopamine monoamines are changed, it is preferable that the dosing of both supplemental amino acid precursors is increased or the dosing of both supplemental amino acid precursors is decreased. The subject also should have not missed any dosing of amino acid precursors in the 3 to 5 day period before the sample is collected.
1. Phase 1: • a. Where an increase in amino acid precursor dosing of either the serotonin amino acid precursor and/or the dopamine amino acid precursor causes a decrease in the second assay urinary serotonin or dopamine monoamine levels. • b. Where a decrease in amino acid dosing of either the serotonin amino acid precursor and/or the dopamine amino acid precursor causes an increase in the second assay urinary serotonin or dopamine monoamine levels.
2. Phase 2: • a. Where urinary serotonin and/or dopamine monoamine levels are less than the therapeutic range.
3. Phase 3: • a. Where an increase in amino acid precursor dosing of either the serotonin amino acid precursor and/or the dopamine amino acid precursor causes an increase in the second assay urinary serotonin or dopamine monoamine levels. • b. Where a decrease in the amino acid precursor dosing of either the serotonin amino acid precursor and/or the dopamine amino acid precursor causes a decrease in the second assay urinary serotonin or dopamine monoamine levels.

[2] = system: urinary dopamine; test: Urinary dopamine monoamine level assay (RIA, per gram of creatinine) under amino acid precursor dosing
Procedure: (§1) For monoamine testing of monoamines of The System, urine is collected approximately 5 to 6 hours prior onset of the sleep cycle and just prior to any amino acid dosing the subject may or may not be taking close to that time period. Once the urine sample is obtained, laboratory assay of the monoamine of The System are performed as well as a urinary creatinine assay and the results are reported in terms of micrograms of monoamine per gram of creatinine.
(§2) Referring now to the data summarized herein, the data is from a database of subjects who have been diagnosed by a licensed healthcare provider as having one or more monoamine dysfunction(s) associated with the serotonin and/or catecholamine systems. The database fields include: • 1. The monoamine diagnosis made by a licensed healthcare provider; • 2. Amino acid dosing of amino acid precursors of the serotonin and dopamine monoamines; • 3. Laboratory assay of urinary serotonin and catecholamine monoamine levels; • 4. The subject's sex; • 5. The subject's age and date of birth; • 6. The subject's weight; • 7. The subject's height; • 8. Any allergies the subject might have; • 9. Any medications (prescription and/or non-prescription) with dosing that the subject might be taking; • 10. Type of license held by the caregiver; and • 11. The subject's state and zip code of residence.
(§3) Also referring to the summarized date, the monoamine analysis performed was subjected to the following criteria: • 1. Urinary monoamine reference ranges reported by the laboratory were determined after precision and accuracy studies had validated initial calibration results; • 2. The reported reference ranges of the laboratory performing the assays were within ±2 standard deviations of the mean for the general population used in calibration; • 3. The reported reference ranges are for adults (18 years of age and older); • 4. Urinary monoamine samples were collected at least 3 to 4 hours after a subject took a dose of amino acid precursors; • 5. Urinary monoamine samples were collected 5 to 6 hours before the onset of the sleep cycle (bed time); • 6. […]

[3] = system: urinary serotonin; test: Urinary serotonin monoamine level assay (ELISA, per gram of creatinine) under amino acid precursor dosing
Procedure: as §1, §2, §3

For `N[C@@H](Cc1c[nH]c2ccc(O)cc12)C(=O)O` [5-HTP, 5-hydroxytryptophan], the “amino acid dosing change required to move between phase 1 and phase 3, much larger changes” value (shortened to “amino acid dosing change required”) [1] was 900 mg, the “amino acid dosing change that moved subjects between phase 1 and phase 3, very small changes” value [1] was 37.5 mg and the “5-HTP dosing giving phase 3 therapeutic urinary serotonin level” value ([1]; Example 4, final assay, tyrosine increased) was 150 mg per day. The “change of 5-HTP dosing that moved urinary serotonin levels from phase 3 to phase 1” value ([1]; Example 6, between test 1 and test 2) was 150 mg per day, the “daily dosing at which the phase 2/phase 3 inflection point occurs” value ([1]; dose-response curve of one embodiment, urinary serotonin, balanced amino acids) was “approximately 800 milligrams per day” and the “daily dosing at the phase 2/phase 3 inflection point, low-dose subjects” value ([1]; subjects who experience the inflection point at low dose) was 50 milligrams per day. The “daily dosing at the phase 2/phase 3 inflection point, high-dose subjects” value ([1]; subjects without inflection point until this dose per day) was 1,500 milligrams and the “excretion of dopamine in phase 3 by the kidneys” value ([2]; administration of 5-HTP alone) was “marked increase”.

With `N[C@@H](Cc1ccc(O)cc1)C(=O)O` [L-Tyrosine] the “amino acid dosing change required” value [1] was 5,000 mg, the “amino acid dosing change that moved subjects between phase 1 and phase 3, very small changes” value [1] was 375 mg and the “urinary serotonin levels on the second laboratory assay” value ([3]; Example 1, one subject, increase in tyrosine) was “marked increase”. For the same compound, the “change in urinary dopamine levels” value ([2]; Example 1, one subject, increase in tyrosine, dopamine subtherapeutic) was “without much change” and the “highest urinary dopamine established in phase 3 by administration of tyrosine” value ([2]; phase 3, tyrosine as dopamine precursor) was ≤ 475 micrograms of dopamine per gram of creatinine.

For `N[C@@H](Cc1ccc(O)c(O)c1)C(=O)O` [L-dopa, 1-3,4-dihydroxyphenylalanine, reference compound], the “amino acid dosing change required” value [1] was 900 mg, the “amino acid dosing change that moved subjects between phase 1 and phase 3, very small changes” value [1] was 60 mg and the urinary serotonin level ([3]; Example 2, one subject, increase in L-dopa between first and third assay) was “increased”. The “urinary excretion of serotonin in phase 3” value ([3]; addition of unopposed L-dopa) was “increases markedly”.
